Values of other authors in patent publication US7759312B2 (priority 2005, dated 2010).

Assays:
GH = conditions: following a subcutaneous octreotide injection
[1] = patients with acromegaly
IGF-1 = conditions: acromegaly

Substance: L-cysteinamide, D-phenylalanyl-L-cysteiny-L-phenylalanyl-D-tryptophyl-L-lysyl-L-threonyl-N-[2-hydroxy-1-(hydroxymethyl)propyl]-,cyclic(2→7)-disulfide; [Octreotide, L-cysteinamide, D-phenylalanyl-L-cysteiny-L-phenylalanyl-D-tryptophyl-L-lysyl-L-threonyl-N-[2-hydroxy-1-(hydroxymethyl)propyl]-,cyclic(2→7)-disulfide; [R—(R*,R*)]]
- time to decrease of GH levels (GH): within two hours
- mean percent of the drug bound [1]: 41.2%
- total body clearance [1]: 18 L/h
- mean peak concentration ([1]; 100 mcg dose, subcutaneous): 2.8 ng/mL
- time to mean peak concentration ([1]; 100 mcg dose, subcutaneous): 0.7 h
- patients with normalization of IGF-1 levels (IGF-1): up to 60%
